Calls of active or inactive are those of the source. The rule behind the calls is not given here.

The values that follow come from PubChem BioAssay AID1259411 (Chemical Carcinogenesis Research Information System (CCRIS), 2018).

The subject of the data set is rodent carcinogenicity bioassays, tumor incidence. In words: CCRIS carcinogenicity studies. The essentials:
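Archive of carcinogenicity, mutagenicity, tumor promotion and tumor inhibition results drawn from journals, NCI reports and other sources, expert-reviewed; covers 1985-2011 and is no longer updated.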

Consider `Cc1ccc(N)cc1N`, for which the carcinogen call runs as follows: (Species: MOUSE, Strain/Sex: B6C3F1/FEMALE, Route: ORAL, Dose: 0, 100, 200 PPM IN DIET FOR 101 WK, Dose: 0, 100, 200 PPM IN DIET FOR 101 WK, Tumor Site: Type of Lesion: HEMATOPOIETIC SYSTEM (LEUKEMIA), LYMPHATIC SYSTEM: LYMPHOMA, LIVER: HEPATOCELLULAR CARCINOMA, Tumor Site: Type of Lesion: HEMATOPOIETIC SYSTEM (LEUKEMIA), LYMPHATIC SYSTEM: LYMPHOMA, LIVER: HEPATOCELLULAR CARCINOMA) “active; positive”; (Species: MOUSE, Strain/Sex: B6C3F1/MALE, Route: ORAL, Dose: 0, 100, 200 PPM IN DIET FOR 101 WK, Dose: 0, 100, 200 PPM IN DIET FOR 101 WK) “inactive; negative”; (Species: RAT, Strain/Sex: F344/FEMALE, Route: ORAL, Dose: 0, 79, 171 PPM TWA, IN DIET FOR 84-103 WK, Dose: 0, 79, 171 PPM TWA, IN DIET FOR 84-103 WK, Tumor Site: Type of Lesion: INTEGUMENTARY SYSTEM (SUBCUTANEOUS TISSUE): FIBROMA, FIBROSARCOMA, LIVER: HEPATOCELLULAR CARCINOMA OR NEOPLASTIC NODULE;, Tumor Site: Type of Lesion: INTEGUMENTARY SYSTEM (SUBCUTANEOUS TISSUE): FIBROMA, FIBROSARCOMA, LIVER: HEPATOCELLULAR CARCINOMA OR NEOPLASTIC NODULE) “active; positive”; (Species: RAT, Strain/Sex: F344/MALE, Route: ORAL, Dose: 0, 79, 176 PPM TWA, IN DIET FOR 79-103 WK, Dose: 0, 79, 176 PPM TWA, IN DIET FOR 79-103 WK, Tumor Site: Type of Lesion: INTEGUMENTARY SYSTEM (SUBCUTANEOUS TISSUE): SQUAMOUS CELL CARCINOMA, FIBROMA, LIPOMA, LIVER: HEPATOCELLULAR CARCINOMA OR) “active; positive”.

As for `O=C1CCCCCN1`, the carcinogen call is “inactive; negative” (Species: MOUSE, Strain/Sex: B6C3F1/FEMALE, Route: ORAL, Dose: 0, 7500, 15000 PPM IN DIET, Dose: 0, 7500, 15000 PPM IN DIET); “inactive; negative” (Species: MOUSE, Strain/Sex: B6C3F1/MALE, Route: ORAL, Dose: 0, 7500, 15000 PPM IN DIET, Dose: 0, 7500, 15000 PPM IN DIET); “inactive; negative” (Species: RAT, Strain/Sex: F344/FEMALE, Route: ORAL, Dose: 0, 3750, 7500 PPM IN DIET, Dose: 0, 3750, 7500 PPM IN DIET); “inactive; negative” (Species: RAT, Strain/Sex: F344/MALE, Route: ORAL, Dose: 0, 3750, 7500 PPM IN DIET, Dose: 0, 3750, 7500 PPM IN DIET).

As to `CC(=O)Nc1ccc(/C=C/c2ccccc2)cc1`, the carcinogen call (Species: RAT, Strain/Sex: HOLTZMAN/MALE, Route: ORAL, Dose: 0, 0.0046% IN DIET FOR WK 0-13 (STUDY DURATION: 40 WK), Tumor Site: Type of Lesion: EAR DUCT GLAND: CARCINOMA) was “active; positive”.

Consider `Cc1c2ccccc2c(COS(=O)(=O)O)c2ccc3ccccc3c12`, for which the carcinogen call is “active; positive” (Species: MOUSE, Strain/Sex: B6C3F1/MALE, Route: INTRAPERITONEAL, Dose: 0, 0.001, 0.003, 0.01 UMOL/G IN 5 µL/G DMSO ONCE ON D 12 OF AGE (STUDY DURATION: 10 MO), Dose: 0, 0.001, 0.003, 0.01 UMOL/G IN 5 µL/G DMSO ONCE ON D 12 OF AGE (STUDY DURATION: 10 MO), Tumor Site: Type of Lesion: LIVER: HEPATOMA); “active; positive” (Species: MOUSE, Strain/Sex: B6C3F1/MALE, Route: INTRAPERITONEAL, Dose: 0, 0.0025 UMO1/G IN 10 ML/G TRIOCTANOIN ON 12, 16, 20, AND 24 D OF AGE (STUDY DURATION: 10 MO), Tumor Site: Type of Lesion: LIVER: HEPATOMA); “active; positive” (Species: MOUSE, Strain/Sex: B6C3F1/MALE, Route: INTRAPERITONEAL, Dose: 0, 0.0025 UMOL/G IN 10 µL/G TRIOCTANOIN ONCE ON D 12 OF AGE (STUDY DURATION: 10 MO), Tumor Site: Type of Lesion: LIVER: HEPATOMA); “inactive; negative” (Species: MOUSE, Strain/Sex: STRAIN-A/FEMALE, Route: INTRAPERITONEAL, Dose: 0, 0.1 001;0.003, 0.01 UMOL/G IN 5 µL DMSO/G ONCE AT 4-6 WK OF AGE (STUDY DURATION: 6 MO), Dose: 0, 0.1 001;0.003, 0.01 UMOL/G IN 5 µL DMSO/G ONCE AT 4-6 WK OF AGE (STUDY DURATION: 6 MO)); “active; positive” (Species: RAT, Strain/Sex: SPRAGUE-DAWLEY/FEMALE, Route: SUBCUTANEOUS, Dose: 0, 0.2 UMOL 3/WK FOR 20 DOSES (STUDY DURATION: 52 WK), Tumor Site: Type of Lesion: INJECTION SITE: SARCOMA); “inactive; negative” (Species: RAT, Strain/Sex: SPRAGUE-DAWLEY/FEMALE, Route: SUBCUTANEOUS, Dose: 0, 2 UMOL IN 0.25 ML TRIOCTANOIN INTO LEFT HIND LEG AT ABOUT 40 D OF AGE FOLLOWED BY A SECOND DOSE 6 D LATER (STUDY DURA). The carcinogen call (Species: RAT, Strain/Sex: SPRAGUE-DAWLEY/FEMALE, Route: SUBCUTANEOUS, Dose: 0, 2 UMOL IN 0.25 ML TRIOCTANOIN ONCE INTO LEFT HIND LEG AT ABOUT 40 D OF AGE (STUDY DURATION: 16 MO)) was “inactive; negative”.

Turning to `O=C(O)CNCP(=O)(O)O`, the carcinogen call was “inactive; negative” (Species: RAT, Strain/Sex: WISTAR/FEMALE, Route: ORAL, Dose: 0, 300, 900, 2700 MG/L IN DRINKING WATER FOR 2 YR (STUDY DURATION: 2 YR), Dose: 0, 300, 900, 2700 MG/L IN DRINKING WATER FOR 2 YR (STUDY DURATION: 2 YR)); “inactive; negative” (Species: RAT, Strain/Sex: WISTAR/MALE, Route: ORAL, Dose: 0, 300, 900, 2700 MG/L IN DRINKING WATER FOR 2 YR (STUDY DURATION: 2 YR), Dose: 0, 300, 900, 2700 MG/L IN DRINKING WATER FOR 2 YR (STUDY DURATION: 2 YR)); “active; positive. (department of pesticides regulation reviewer describes as a possible” (Species: Rat, Strain/Sex: Sprague-Dawley/Female (50/Group), Route: Oral, Dose: 0, 2000, 8000, 20,000 ppm of 96.5% glyphosate, isopropylamine salt in diet for 24 mo, study duration 24 mo, Dose: 0, 2000, 8000, 20,000 ppm of 96.5% glyphosate, isopropylamine salt in diet for 24 mo, study duration 24 mo, Tumor Site: Type of Lesion: Adrenal cortex: carcinoma (3/50 in high dose group vs 0 in all other groups)); “inactive; negative” (Species: Rat, Strain/Sex: Sprague-Dawley/Male (50/Group), Route: Oral, Dose: 0, 2000, 8000, 20,000 ppm of 96.5% glyphosate, isopropylamine salt in diet for 24 mo, study duration 24 mo, Dose: 0, 2000, 8000, 20,000 ppm of 96.5% glyphosate, isopropylamine salt in diet for 24 mo, study duration 24 mo).

Consider `O=[N+]([O-])c1ccc2c3ccccc3c3cccc4ccc1c2c43`, for which, for the setting “Species: MOUSE, Strain/Sex: B6C3F1/MALE, Route: INTRAPERITONEAL, Dose: 0, 400 NMOL IN 35 µL DMSO ON DAYS 1 (1/7 TOTAL DOSE), 8 (2/7 TOTAL DOSE), AND 15 (4/7 TOTAL DOSE) AFTER BIRTH (STUDY DUR”, the carcinogen call is “inactive; negative”.

Take `Nc1c(Cl)cc(Cl)cc1Cl`: where the note is “Species: MOUSE, Strain/Sex: CD-1/MALE, Route: ORAL, Dose: 6000, 12000 PPM IN DIET, Tumor Site: Type of Lesion: BLOOD VESSELS”, the carcinogen call is “active; positive”.

For `O=NN1CCC(=O)CC1`, for the setting “Species: RAT, Strain/Sex: F344/FEMALE, Route: ORAL, Dose: 0, 80 ML OF SOLUTION OF 115 MG/L IN NEUTRAL DEIONIZED DRINKING WATER 5 D/WK FOR 30 WK (STUDY DURATION: 60 WK), Tumor Site: Type of Lesion: NASAL CAVITY: ESTHESIONEUROEPITHELIOMA, FORESTOMACH: TUMOR, ESOPHAGUS: TUMOR, TONGUE: TUMOR, LIVER: HEPATOCELLULAR CARCI, Tumor Site: Type of Lesion: NASAL CAVITY: ESTHESIONEUROEPITHELIOMA, FORESTOMACH: TUMOR, ESOPHAGUS: TUMOR, TONGUE: TUMOR, LIVER: HEPATOCELLULAR CARCI”, the carcinogen call is “active; positive”.

As for `CN(C)c1ccc(C(=N)c2ccc(N(C)C)cc2)cc1`, the carcinogen call reads like this: (Species: HUMAN, Route: ORAL, INHALATION, DERMAL, Tumor Site: Type of Lesion: URINARY BLADDER) “active; positive”; (Species: MOUSE, Route: ORAL, Tumor Site: Type of Lesion: LIVER, LYMPHATIC SYSTEM: LYMPHOMA) “active; positive”; (Species: RAT, Route: ORAL, Tumor Site: Type of Lesion: LIVER) “active; positive”; (Species: RAT, Route: SUBCUTANEOUS, Tumor Site: Type of Lesion: INJECTION SITE) “active; positive”.

With `CC(C)N1C(=O)c2ccccc2NS1(=O)=O`, the carcinogen call is, setting by setting: (Species: Mouse, Strain/Sex: B6C3F1/Female (70/sex/group), Route: Oral, Dose: 0, 100, 400, 2000 ppm in diet for 2 yr, Dose: 0, 100, 400, 2000 ppm in diet for 2 yr) “inactive; negative; purity 93.3%”; (Species: Mouse, Strain/Sex: B6C3F1/Male (70/sex/group), Route: Oral, Dose: 0, 100, 400, 2000 ppm in diet for 2 yr, Dose: 0, 100, 400, 2000 ppm in diet for 2 yr, Tumor Site: Type of Lesion: Liver: Combined hepatocellular adenoma and carcinoma (13/49 in controls and 22/49 at highest dose)) “active; positive; purity 93.3%”; (Species: Rat, Strain/Sex: Fischer 344/DU CRJ/Female (70/sex/group), Route: Oral, Dose: 0, 200, 800, 4000 ppm in diet for 2 yr, Dose: 0, 200, 800, 4000 ppm in diet for 2 yr) “inactive; negative; purity 93.3%”; (Species: Rat, Strain/Sex: Fischer 344/DU CRJ/Male (70/sex/group), Route: Oral, Dose: 0, 200, 800, 4000 ppm in diet for 2 yr, Dose: 0, 200, 800, 4000 ppm in diet for 2 yr) “inactive; negative; purity 93.3%”.
